Experimental data reported in ChEMBL document CHEMBL3991601, “The target landscape of clinical kinase drugs” (Science, 2017).
Activity calls are given as the source filed them. Cut-off read from the data, not from the text of the source: actives have a measured Kd and inactives only a lower limit.

Assays:
[1] = target: T1, Cyclin-G-associated kinase (Homo sapiens, UniProt O14976)
T1 sequence (O14976 whole entry): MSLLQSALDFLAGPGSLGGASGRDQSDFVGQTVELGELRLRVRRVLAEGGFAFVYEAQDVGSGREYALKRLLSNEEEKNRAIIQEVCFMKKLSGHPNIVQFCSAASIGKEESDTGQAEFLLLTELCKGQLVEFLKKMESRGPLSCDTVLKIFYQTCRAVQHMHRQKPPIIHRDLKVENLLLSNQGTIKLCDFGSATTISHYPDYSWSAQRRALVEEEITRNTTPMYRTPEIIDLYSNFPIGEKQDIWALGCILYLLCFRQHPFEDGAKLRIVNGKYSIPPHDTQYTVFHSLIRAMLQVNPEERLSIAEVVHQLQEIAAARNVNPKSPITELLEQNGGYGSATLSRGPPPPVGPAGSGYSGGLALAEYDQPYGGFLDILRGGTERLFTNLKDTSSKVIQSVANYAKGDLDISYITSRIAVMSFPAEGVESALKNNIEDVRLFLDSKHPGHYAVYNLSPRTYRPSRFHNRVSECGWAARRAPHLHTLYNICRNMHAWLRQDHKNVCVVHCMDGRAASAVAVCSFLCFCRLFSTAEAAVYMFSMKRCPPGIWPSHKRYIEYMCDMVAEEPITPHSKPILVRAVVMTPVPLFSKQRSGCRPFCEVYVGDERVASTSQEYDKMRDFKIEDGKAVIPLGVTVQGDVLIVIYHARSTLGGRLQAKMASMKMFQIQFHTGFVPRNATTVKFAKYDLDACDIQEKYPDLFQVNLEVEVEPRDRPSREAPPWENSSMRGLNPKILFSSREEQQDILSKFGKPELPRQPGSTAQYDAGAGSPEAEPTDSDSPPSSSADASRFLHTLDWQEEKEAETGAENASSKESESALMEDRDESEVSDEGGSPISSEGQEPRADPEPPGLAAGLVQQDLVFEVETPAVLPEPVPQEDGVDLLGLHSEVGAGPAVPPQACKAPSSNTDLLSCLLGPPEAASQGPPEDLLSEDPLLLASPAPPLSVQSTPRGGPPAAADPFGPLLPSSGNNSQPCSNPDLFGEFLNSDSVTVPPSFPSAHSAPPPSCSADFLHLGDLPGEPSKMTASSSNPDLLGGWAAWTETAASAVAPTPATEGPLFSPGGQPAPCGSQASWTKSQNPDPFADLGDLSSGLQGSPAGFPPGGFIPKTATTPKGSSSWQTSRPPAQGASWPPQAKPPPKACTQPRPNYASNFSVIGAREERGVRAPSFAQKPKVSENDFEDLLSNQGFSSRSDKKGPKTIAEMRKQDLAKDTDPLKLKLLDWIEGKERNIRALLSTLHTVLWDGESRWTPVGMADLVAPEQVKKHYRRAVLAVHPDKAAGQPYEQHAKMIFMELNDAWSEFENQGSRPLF

[2] = target: 5'-AMP-activated protein kinase catalytic subunit alpha-1 (Homo sapiens, UniProt Q13131)
5'-AMP-activated protein kinase catalytic subunit alpha-1, sequence (Q13131 whole entry): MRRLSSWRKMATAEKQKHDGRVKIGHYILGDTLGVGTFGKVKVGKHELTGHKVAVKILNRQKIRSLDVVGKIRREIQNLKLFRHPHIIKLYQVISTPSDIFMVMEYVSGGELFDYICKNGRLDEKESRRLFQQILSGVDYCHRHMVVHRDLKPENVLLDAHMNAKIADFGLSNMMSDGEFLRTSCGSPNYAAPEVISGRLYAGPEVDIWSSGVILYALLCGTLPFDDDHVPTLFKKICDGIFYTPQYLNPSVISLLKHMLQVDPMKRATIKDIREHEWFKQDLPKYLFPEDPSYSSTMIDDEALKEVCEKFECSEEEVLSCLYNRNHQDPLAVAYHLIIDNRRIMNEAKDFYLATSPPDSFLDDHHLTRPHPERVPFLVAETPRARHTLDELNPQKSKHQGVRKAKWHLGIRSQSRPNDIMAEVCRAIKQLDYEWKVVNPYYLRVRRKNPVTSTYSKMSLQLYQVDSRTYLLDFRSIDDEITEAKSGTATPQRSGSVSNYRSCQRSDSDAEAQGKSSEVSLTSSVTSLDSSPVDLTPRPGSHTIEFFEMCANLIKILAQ

[3] = target: T2, Ephrin type-B receptor 4 (Homo sapiens, UniProt P54760)
T2 sequence (P54760 whole entry): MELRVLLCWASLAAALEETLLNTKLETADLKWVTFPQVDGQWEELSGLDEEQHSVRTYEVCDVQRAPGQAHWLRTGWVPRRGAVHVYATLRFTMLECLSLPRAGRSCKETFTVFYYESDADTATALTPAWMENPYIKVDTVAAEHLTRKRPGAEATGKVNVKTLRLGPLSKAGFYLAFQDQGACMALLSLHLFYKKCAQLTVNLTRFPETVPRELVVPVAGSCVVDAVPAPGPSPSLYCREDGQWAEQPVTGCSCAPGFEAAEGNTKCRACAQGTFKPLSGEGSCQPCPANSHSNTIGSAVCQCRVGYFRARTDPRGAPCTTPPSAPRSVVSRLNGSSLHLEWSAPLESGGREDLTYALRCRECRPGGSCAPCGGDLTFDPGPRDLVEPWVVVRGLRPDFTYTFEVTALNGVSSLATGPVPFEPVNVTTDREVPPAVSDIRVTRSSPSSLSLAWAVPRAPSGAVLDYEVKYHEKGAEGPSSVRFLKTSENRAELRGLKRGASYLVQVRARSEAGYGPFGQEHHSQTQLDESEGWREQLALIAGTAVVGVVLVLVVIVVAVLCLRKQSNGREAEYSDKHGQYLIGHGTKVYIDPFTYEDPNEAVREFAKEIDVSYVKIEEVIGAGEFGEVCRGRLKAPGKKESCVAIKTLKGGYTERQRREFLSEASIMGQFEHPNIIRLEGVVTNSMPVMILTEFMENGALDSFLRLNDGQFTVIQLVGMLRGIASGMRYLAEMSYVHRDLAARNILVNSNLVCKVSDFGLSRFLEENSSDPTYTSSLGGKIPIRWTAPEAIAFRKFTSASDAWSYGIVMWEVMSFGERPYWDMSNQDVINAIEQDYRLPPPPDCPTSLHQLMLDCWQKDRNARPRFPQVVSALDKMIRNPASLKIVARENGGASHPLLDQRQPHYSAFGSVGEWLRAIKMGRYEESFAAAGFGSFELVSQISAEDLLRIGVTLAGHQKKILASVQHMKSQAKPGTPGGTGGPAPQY

[4] = target: Protein kinase C alpha type (Homo sapiens, UniProt P17252)
[5] = target: T3, Non-receptor tyrosine-protein kinase TNK1 (Homo sapiens, UniProt Q13470)
T3 sequence (Q13470 whole entry): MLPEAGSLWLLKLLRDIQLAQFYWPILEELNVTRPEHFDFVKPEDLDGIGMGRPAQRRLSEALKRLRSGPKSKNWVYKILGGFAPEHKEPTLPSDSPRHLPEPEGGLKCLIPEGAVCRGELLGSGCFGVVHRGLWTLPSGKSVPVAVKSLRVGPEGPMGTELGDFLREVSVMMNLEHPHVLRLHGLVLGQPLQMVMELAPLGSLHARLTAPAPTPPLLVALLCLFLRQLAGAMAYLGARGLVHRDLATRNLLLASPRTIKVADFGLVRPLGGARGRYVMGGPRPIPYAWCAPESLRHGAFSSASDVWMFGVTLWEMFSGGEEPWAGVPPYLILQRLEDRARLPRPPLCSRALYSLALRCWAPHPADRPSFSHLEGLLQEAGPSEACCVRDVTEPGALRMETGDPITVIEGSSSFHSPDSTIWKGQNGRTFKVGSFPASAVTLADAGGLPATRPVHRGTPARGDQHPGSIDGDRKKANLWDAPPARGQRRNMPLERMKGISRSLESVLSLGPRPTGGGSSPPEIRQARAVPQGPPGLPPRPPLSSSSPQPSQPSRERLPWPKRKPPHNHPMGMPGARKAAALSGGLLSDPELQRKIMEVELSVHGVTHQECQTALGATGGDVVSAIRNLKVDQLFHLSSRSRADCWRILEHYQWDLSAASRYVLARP
Note: in the data inactive means no Kd found up to 30 µM.

Compound	Kd [1]	Kd [2]	Kd [3]	Kd [4]	Kd [5]
C[C@@H](Oc1cc(C(=O)Nc2ccc(C(=O)N3CCN(C)CC3)cc2)nnc1N)c1c(Cl)ccc(F)c1Cl	> 30 µM (inactive)	> 30 µM (inactive)	> 30 µM (inactive)	> 30 µM (inactive)	> 30 µM (inactive)
C[C@H]1CNCCCN1S(=O)(=O)c1cccc2cncc(F)c12	> 30 µM (inactive)	3.27 µM (active)	> 30 µM (inactive)	> 30 µM (inactive)	> 30 µM (inactive)
CC(=O)c1cnc2ccc(-c3cc(Cl)c(O)c(Cl)c3)nc2c1N[C@H]1CC[C@H](CN(C)C)CC1	0.005 µM (active)		0.143 µM (active)		1.78 µM (active)
CCNC(=O)C#Cc1ccc2c(c1)NC(=O)/C2=C(\Nc1ccc(CN(C)C)cc1)c1ccccc1	> 30 µM (inactive)	3.05 µM (active)	> 30 µM (inactive)	> 30 µM (inactive)	> 30 µM (inactive)
C=CC(=O)N1CCC[C@H](n2c(=O)n(-c3ccc(Oc4ccccc4)cc3)c3c(N)ncnc32)C1	> 30 µM (inactive)	> 30 µM (inactive)	> 30 µM (inactive)	> 30 µM (inactive)	> 30 µM (inactive)
Cc1nc2cc(-c3nn(C(C)C)c4ncnc(N)c34)ccc2o1	> 30 µM (inactive)	> 30 µM (inactive)	> 30 µM (inactive)	21.8 µM (active)	> 30 µM (inactive)
COCc1c(-c2ccc(NC(=O)Nc3cc(C(F)(F)F)ccc3F)c(F)c2)c2c(N)ncnn2c1CN1CCOCC1	> 30 µM (inactive)	> 30 µM (inactive)	> 30 µM (inactive)	> 30 µM (inactive)	1.26 µM (active)
COc1cc(Nc2ncc3c(n2)-c2ccc(Cl)cc2C(c2c(F)cccc2OC)=NC3)ccc1C(=O)O [ALISERTIB]	> 30 µM (inactive)			> 30 µM (inactive)	
Cc1nc(NC(=O)N2CCC[C@H]2C(N)=O)sc1-c1ccnc(C(C)(C)C(F)(F)F)c1 [ALPELISIB]	4.97 µM (active)	> 30 µM (inactive)	> 30 µM (inactive)	> 30 µM (inactive)	> 30 µM (inactive)
O=C(Nc1c[nH]nc1-c1nc2cc(CN3CCOCC3)ccc2[nH]1)NC1CC1 [AT-9283]		0.05 µM (active)			
C=CC(=O)Nc1cc2c(Nc3ccc(F)c(Cl)c3)ncnc2cc1C#CC(C)(C)N1CCN(C)CC1 [AV-412 FREE BASE]	> 30 µM (inactive)	> 30 µM (inactive)	> 30 µM (inactive)	> 30 µM (inactive)	> 30 µM (inactive)
CNC(=O)c1ccccc1Sc1ccc2c(/C=C/c3ccccn3)n[nH]c2c1 [AXITINIB]				> 30 µM (inactive)	
COc1cc([C@@H]2c3cc4c(cc3[C@H](O)[C@H]3COC(=O)[C@@H]23)OCO4)cc(OC)c1OC [AXL-1717]	> 30 µM (inactive)	> 30 µM (inactive)	> 30 µM (inactive)	> 30 µM (inactive)	> 30 µM (inactive)
CC(C)(C)c1nc(-c2cccc(NS(=O)(=O)c3c(F)cccc3F)c2F)c(-c2ccnc(N)n2)s1 [DABRAFENIB]	> 30 µM (inactive)			> 30 µM (inactive)	0.066 µM (active)
O=C(Nc1cc(C(F)(F)F)cc(C(F)(F)F)c1)c1cc(Cl)ccc1O [IMD-0354]	> 30 µM (inactive)		> 30 µM (inactive)	> 30 µM (inactive)	> 30 µM (inactive)
Cc1[nH]c(/C=C2\C(=O)Nc3ccccc32)c(C)c1CCC(=O)O [ORANTINIB]	2.09 µM (active)		> 30 µM (inactive)	> 30 µM (inactive)	
N#CC[C@H](C1CCCC1)n1cc(-c2ncnc3[nH]ccc23)cn1 [RUXOLITINIB]				16.5 µM (active)	
CN1CCN(CCOc2cc(OC3CCOCC3)c3c(Nc4c(Cl)ccc5c4OCO5)ncnc3c2)CC1 [SARACATINIB]		> 30 µM (inactive)	3.88 µM (active)	> 30 µM (inactive)	> 30 µM (inactive)

Other lines, results leading:

Kd [1]	Kd [2]	Kd [3]	Kd [4]	Kd [5]	Compound
> 30 µM (inactive)	> 30 µM (inactive)	> 30 µM (inactive)	> 30 µM (inactive)	> 30 µM (inactive)	Nc1ncnc2c1c(-c1cccc(OCc3ccccc3)c1)cn2[C@H]1C[C@@H](CN2CCC2)C1 [AEW-541]
> 30 µM (inactive)	> 30 µM (inactive)	> 30 µM (inactive)	> 30 µM (inactive)	> 30 µM (inactive)	Cc1csc(-c2nnc(Nc3ccc(Oc4ncccc4-c4ccnc(N)n4)cc3)c3ccccc23)c1 [AMG-900]
			> 30 µM (inactive)		C[C@@H](Oc1cc(-n2cnc3ccc(CN4CCN(C)CC4)cc32)sc1C(N)=O)c1ccccc1C(F)(F)F [GSK-461364]
	> 30 µM (inactive)	> 30 µM (inactive)	> 30 µM (inactive)		CCn1cc(-c2ccnc3[nH]c(-c4cccc(CN(C)C)c4)cc23)c(-c2ccc(NC(=O)N(C)C)cc2)n1 [GSK-1070916]
> 30 µM (inactive)		> 30 µM (inactive)	> 30 µM (inactive)	> 30 µM (inactive)	NC(=O)c1c(OCc2c(F)cc(Br)cc2F)nsc1NC(=O)NCCCCN1CCCC1 [OSI-632]
1.76 µM (active)		> 30 µM (inactive)	> 30 µM (inactive)	0.369 µM (active)	CC(=O)NCC(=O)N1[C@@H]2CC[C@H]1c1ccc(Nc3ncc(C(F)(F)F)c(NC4CCC4)n3)cc12 [PF-03814735]
			> 30 µM (inactive)		O=C(NOCCO)c1cc(CN2OCCCC2=O)c(F)c(F)c1Nc1ccc(I)cc1F [RO-4987655]
> 30 µM (inactive)		0.656 µM (active)	1.61 µM (active)	0.558 µM	CCS(=O)(=O)c1cccc(-c2cc(C(=O)NC3CCN(C)CC3)c(C)c3[nH]c4ncc(C)cc4c23)c1 [TAK-901]
